Reference: patent publication US10800778B2 (Entasis Therapeutics Limited, priority 2016, dated 2020)
Where a name gives a salt, the structure may show the parent alone. Each block holds one compound with its values, some of them ahead of it.

Key:
[1] = tested on: E. coli ARC2687 (AmpC, CTX-M-14); assay: Cefpodoxime MIC against clinical isolate E. coli ARC2687; format: cell-based
[2] = tested on: Klebsiella pneumoniae SHV-18, OXA-2, OKP-6 (ATCC 700603); assay: MIC, CLSI broth microdilution, beta-lactam with or without BLI; format: cell-based
Experimental: (§1) The minimal inhibitory concentration (MIC) values against each organism and drug combination were determined using the Clinical and Laboratory Standards Institute guidelines (CLSI) broth microdilution methodology (CLSI M07-A10). The recommended quality control (QC) bacterial strains E. coli ATCC 25922, E. coli ATCC 35218 and Klebsiella pneumoniae ATCC 700603 were incorporated into each test according to the CLSI guidelines to assure that there was no variation between test dates (CLSI M100-S25). The MICs of these QC strains were within QC range on all test occasions. Drug containing plates were made using the master plate method. A cefpodoxime solution was prepared to 20× concentration and 2-fold serial dilutions were made in cation adjusted Mueller-Hinton Broth. Equal volumes of 20× examplar compounds at a fixed concentration were added to the master plate. 10 uL was stamped into daughter plates using a Tecan EVO robot. Organism suspensions were adjusted to a 0.5 McFarland standard and further diluted to yield a final inoculum between 3×10^5 and 7×10^5 colony-forming units (CFU)/mL. Bacterial inocula were made in sterile, cation adjusted Mueller-Hinton Broth (Beckton Dickinson). An inoculum volume of 1.1× concentration of 90 uL was added to wells (using a Tecan EVO robot). All inoculated microdilution plates were incubated in ambient air at 35° C. for 18-24 hours.
(§2) Following the procedure from Example 103, MICs were determined for several beta-lactams in presence of a fixed concentration (4 μg/mL) of exemplar compounds (Table 3) against 3 Enterobacteriaceae strains.

[3] = tested on: C. freundii AmpC, TEM-1, CMY65; assay: as above; format: cell-based
Experimental: as §1, §2

[4] = tested on: E. coli WT (ATCC 25922); assay: as above; format: cell-based
Experimental: as §1, §2

[5] = tested on: E. coli AmpC, OXA-1, CTX-M-15, TEM-1; assay: MIC, CLSI broth microdilution, cefpodoxime with or without BLI; format: cell-based; details: Escherichia coli, read-out: MIC of beta-lactam alone, heading: MIC of beta-lactam alone, no BLI
Experimental: as §1

[6] = target: TEM-1 (Class A beta-lactamase) (Escherichia coli, UniProt P62593); assay: Inhibition of beta-lactamase enzymes (nitrocefin hydrolysis), TEM-1; format: biochemical; details: read-out: Class A TEM-1 60 min IC50, nitrocefin 100 μM
Chain of TEM-1 (Class A beta-lactamase) (P62593 whole entry, looked up, species assumed): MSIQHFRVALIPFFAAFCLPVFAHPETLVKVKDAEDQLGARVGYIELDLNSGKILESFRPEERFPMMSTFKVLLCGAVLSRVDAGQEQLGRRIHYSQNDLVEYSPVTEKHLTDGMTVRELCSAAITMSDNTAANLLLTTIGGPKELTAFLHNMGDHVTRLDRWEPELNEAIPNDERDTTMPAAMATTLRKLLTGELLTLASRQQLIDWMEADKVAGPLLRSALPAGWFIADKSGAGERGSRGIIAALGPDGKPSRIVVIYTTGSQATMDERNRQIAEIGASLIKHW
Procedure, shortened: (§3)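 Nitrocefin (100 μM) hydrolysis followed at 490 nm for 1 h in 0.1 M sodium phosphate pH 7.0, 10 mM NaHCO3, 0.005% Triton X-100, with 3-fold inhibitor dilutions from 100 μM to 62.7 pM. Progress curves fitted globally to give kinact/Ki or Ki; percent inhibition from best-fit absorbance fitted with Hill equation.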

[7] = target: OXA-48 (Class D beta-lactamase) (Klebsiella pneumoniae, UniProt Q6XEC0); assay: Inhibition of beta-lactamase enzymes (nitrocefin hydrolysis), OXA-48; format: biochemical; details: read-out: Class D OXA-48 60 min IC50, nitrocefin 100 μM
Chain of OXA-48 (Class D beta-lactamase) (Q6XEC0 whole entry, looked up, species assumed): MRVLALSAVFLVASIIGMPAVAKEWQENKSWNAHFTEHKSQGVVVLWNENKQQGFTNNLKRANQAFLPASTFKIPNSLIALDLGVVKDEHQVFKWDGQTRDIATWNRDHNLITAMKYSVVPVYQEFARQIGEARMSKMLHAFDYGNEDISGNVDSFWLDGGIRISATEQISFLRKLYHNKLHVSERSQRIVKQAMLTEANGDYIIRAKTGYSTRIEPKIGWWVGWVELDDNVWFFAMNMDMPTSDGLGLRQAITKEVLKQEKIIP
Procedure, shortened: as §3

[8] = Rat PK, intravenous and oral; format: in vivo, Sprague-Dawley rats; details: Sprague-Dawley, plasma; rat, IV 10 mg/kg; analyte = compound administered
Experimental: Intravenous rat pharmacokinetics of exemplar compounds were determined in jugular vein cannulated Sprague-Dawley rats (n=3) (Harlan Laboratories, Indianapolis, Ind.) at a dose of 10 mg/kg. Compounds were dissolved and administered intravenously in 0.9% saline, pH 6.5 at a dose volume of 2 mL/kg. […] Oral pharmacokinetic studies were conducted with exemplar compounds at 10 mg/kg equivalents of carboxylic acids. Doses were dissolved and administered orally in 25:75 PEG400: water for injection, pH 4.5 at a dose volume of 10 mL/kg. […] Plasma samples were stored at −80° C. prior to bioanalysis.
Plasma samples were thawed on ice prior to processing. Samples (30 μL) were diluted and proteins precipitated with 180 μL of acetonitrile containing 0.1% formic acid and 250 ng/mL of carbutamide (N1-(butylcarbanoyl)-sulfanilamide, Sigma-Aldrich Catalog # S385433) as an internal standard. Samples were vortexed for 30 seconds, centrifuged at 3400 g for 10 minutes and the supernatant transferred to injection vials.
LC/MS/MS analysis was completed on an AB Sciex QTrap 6500 mass spectrometer in positive ionization mode, coupled to a Schimadzu Nexera LC system. A Waters Atlantis T3 (3 μm, 3.0×50 mm) column was used for chromatographic separation. Injection volume was […] The mobile phase consisted 0.1% formic acid in water (A) and 0.1% formic acid in acetonitrile (B), with a gradient of 2-98% B:A over two minutes.
Plasma concentration vs. time profiles following intravenous (IV) administration and oral (PO) administration of exemplar compounds were analyzed by non-compartment analysis using WinNonLin 6.4.

[9] = tested on: E. coli ARC2687 (AmpC, CTX-M-14); assay: Mouse neutropenic thigh infection model, oral efficacy of cefpodoxime proxetil with Example 35; format: in vivo
[10] = BLI at fixed 4 μg/ml, K. pneumoniae ATCC 700603

MIC ([1]; Escherichia coli, cefpodoxime alone): > 512 µg/mL | MIC ([2]; Klebsiella pneumoniae, ATCC700603, no BLI, K. pneumoniae SHV-18, OXA-2, OKP-6 (ATCC 700603), read-out: MIC of beta-lactam alone): 16 µg/mL | MIC ([3]; Citrobacter freundii, read-out: MIC of beta-lactam alone, no BLI, heading: MIC of beta-lactam alone): > 64 µg/mL | MIC of beta-lactam alone ([3]; no BLI): >64 µg/mL | MIC ([4]; Escherichia coli, ATCC25922, no BLI, read-out: MIC of beta-lactam alone): 1 µg/mL | MIC [5]: > 64 µg/mL
Structure (SMILES): COCC1=C(C(=O)O)N2C(=O)[C@@H](NC(=O)/C(=N\OC)c3csc(N)n3)[C@H]2SC1 [Cefpodoxime, reference compound]

Structure (SMILES): CC1=C[C@@H](C(N)=O)N2C[C@@H]1N(O[C@H](F)C(=O)O)C2=O [Example 33, (2R)-2-(((2S,5R)-2-carbamoyl-4-methyl-7-oxo-1,6-diazabicyclo[3.2.1]oct-3-en-6-yl)oxy)-2-fluoroacetic acid lithium salt]
cefpodoxime MIC in combination with BLI ([1]; BLI at 4 μg/mL): < 0.03 µg/mL | IC50 [6]: 3.2 nM | IC50 [7]: 77 nM | AUC [8]: 26.3 µM·h | MIC of cefixime in presence of BLI [2, 10]: ≤0.06 µg/mL | MIC of cefuroxime in presence of BLI [2, 10]: 4 µg/mL | MIC of faropenem in presence of BLI [2, 10]: 0.5 µg/mL | MIC of tebipenem in presence of BLI [2, 10]: 0.125 µg/mL | MIC of cefixime in presence of BLI ([3]; BLI at fixed 4 μg/ml): ≤0.06 µg/mL | MIC of cefuroxime in presence of BLI ([3]; BLI at fixed 4 μg/ml): <0.03125 µg/mL | MIC of faropenem in presence of BLI ([3]; BLI at fixed 4 μg/ml): ≤0.06 µg/mL | MIC of tebipenem in presence of BLI ([3]; BLI at fixed 4 μg/ml): ≤0.06 µg/mL | MIC of cefixime in presence of BLI ([4]; BLI at fixed 4 μg/ml): ≤0.06 µg/mL | MIC of cefuroxime in presence of BLI ([4]; BLI at fixed 4 μg/ml): <0.03125 µg/mL | MIC of faropenem in presence of BLI ([4]; BLI at fixed 4 μg/ml): ≤0.06 µg/mL | MIC of tebipenem in presence of BLI ([4]; BLI at fixed 4 μg/ml): ≤0.06 µg/mL

Structure (SMILES): C[C@@H](O)[C@H]1C(=O)N2C(C(=O)O)=C(S[C@@H]3CN[C@H](C(=O)N(C)C)C3)[C@H](C)[C@H]12 [Meropenem]
reduction in CFU relative to initiation of therapy ([9]; 600 mg/kg q6h administered subcutaneously, positive control): over 1 log10 | log10CFU/gm thigh ([9]; Meropenem 600 mg/kg SC/q6h, positive control, mouse neutropenic thigh, E. coli ARC2687): 5.17 log10CFU/gm thigh | CFU Change from 26 hr ([9]; Meropenem 600 mg/kg SC/q6h, relative to 26 hr growth control): −5.69 log10 CFU/gm | CFU Change from 2 hr ([9]; Meropenem 600 mg/kg SC/q6h, relative to initiation of therapy): −1.10 log10 CFU/gm
